{"source": "paper PMC8016998", "about": "“Identification of potential therapeutic antimicrobial peptides against Acinetobacter baumannii in a mouse model of pneumonia” (Scientific Reports, 2021)", "key": {"[1]": {"tested_on": "MDRAB clinical strain AK29", "format": "cell-based, Acinetobacter baumannii", "conditions": "24 h"}, "[2]": {"tested_on": "MDRAB clinical strains", "format": "cell-based, Acinetobacter baumannii", "conditions": "24 h", "protocol": "(§1) MBC were determined by extending the MIC procedure in sterilized 96-well polypropylene microtiter plates according to the broth microdilution guidelines of the Clinical and Laboratory Standards Institute with some modification[47]. […] In addition, 10 µL was drawn from each well with no visible turbidity onto LB agar plates and incubated for 24 h at 37 °C. The lowest concentration showing no visible growth on agar subculture was used as the MBC value. All experiments were performed in triplicate."}, "[3]": {"tested_on": "MDRAB clinical strain AF93", "format": "cell-based, Acinetobacter baumannii", "conditions": "24 h", "protocol": "as §1"}, "[4]": {"tested_on": "MDRAB clinical strain J49", "format": "cell-based, Acinetobacter baumannii", "conditions": "24 h"}, "[5]": {"tested_on": "MDRAB clinical strain W11", "format": "cell-based, Acinetobacter baumannii", "conditions": "24 h"}, "[6]": {"tested_on": "MDRAB clinical strain Y92", "format": "cell-based, Acinetobacter baumannii", "conditions": "24 h"}, "[7]": {"tested_on": "MDRAB clinical strain D29", "format": "cell-based, Acinetobacter baumannii", "conditions": "24 h"}, "[8]": {"tested_on": "Acinetobacter baumannii 17,978", "format": "cell-based", "conditions": "17,978, 24 h"}, "[9]": {"tested_on": "MDRAB clinical strain AL87", "format": "cell-based, Acinetobacter baumannii", "conditions": "24 h"}, "[10]": {"tested_on": "MDRAB clinical strain AE5", "format": "cell-based, Acinetobacter baumannii", "conditions": "24 h", "protocol": "as §1"}, "[11]": {"tested_on": "MDRAB clinical strain AE6", "format": "cell-based, Acinetobacter baumannii", "conditions": "24 h", "protocol": "as §1"}, "[12]": {"tested_on": "MDRAB clinical strain L87", "format": "cell-based, Acinetobacter baumannii", "conditions": "24 h"}, "[13]": {"tested_on": "MDRAB clinical strain AG51", "format": "cell-based, Acinetobacter baumannii", "conditions": "24 h", "protocol": "as §1"}, "[14]": {"tested_on": "MDRAB clinical strain AF11", "format": "cell-based, Acinetobacter baumannii", "conditions": "24 h", "protocol": "as §1"}, "[15]": {"tested_on": "MDRAB clinical strain AF12", "format": "cell-based, Acinetobacter baumannii", "conditions": "24 h"}, "[16]": {"tested_on": "MDRAB clinical strain U95", "format": "cell-based, Acinetobacter baumannii", "conditions": "24 h", "protocol": "as §1"}, "[17]": {"tested_on": "MDRAB clinical strain AS40", "format": "cell-based, Acinetobacter baumannii", "conditions": "24 h", "protocol": "as §1"}, "[18]": {"tested_on": "MDRAB clinical strain AK61", "format": "cell-based, Acinetobacter baumannii", "conditions": "24 h"}, "[19]": {"tested_on": "MDRAB clinical strain AN10", "format": "cell-based, Acinetobacter baumannii", "conditions": "24 h"}, "[20]": {"tested_on": "Acinetobacter baumannii 19,606", "format": "cell-based", "conditions": "19,606, 24 h", "protocol": "as §1"}, "[21]": {"tested_on": "MDRAB clinical strain O59", "format": "cell-based, Acinetobacter baumannii", "conditions": "24 h", "protocol": "as §1"}, "[22]": {"tested_on": "MDRAB clinical strain AZ93", "format": "cell-based, Acinetobacter baumannii", "conditions": "24 h", "protocol": "as §1"}, "[23]": {"tested_on": "MDRAB clinical strain K2", "format": "cell-based, Acinetobacter baumannii", "conditions": "24 h"}, "[24]": {"tested_on": "MDRAB clinical strain AO80", "format": "cell-based, Acinetobacter baumannii", "conditions": "24 h", "protocol": "as §1"}, "[25]": {"tested_on": "MDRAB clinical strain U80", "format": "cell-based, Acinetobacter baumannii", "conditions": "24 h", "protocol": "as §1"}}, "note": "No end group written: not given here."}
{"sequence": "GAKYAKIIYNYLKKIANALW [GW-A2]", "values": [{"measurement": "MBC", "setting": "[1]", "value": 8, "unit": "µg/mL"}, {"measurement": "MIC", "setting": "[1]", "value": 8, "unit": "µg/mL"}, {"measurement": "MBC", "setting": "[2]", "value": "8 to 64", "unit": "µg/mL"}, {"measurement": "MIC", "setting": "[2]", "value": "8 to 32", "unit": "µg/mL"}, {"measurement": "MBC", "setting": "[3]", "value": 16, "unit": "µg/mL"}, {"measurement": "MIC", "setting": "[3]", "value": 16, "unit": "µg/mL"}, {"measurement": "MBC", "setting": "[4]", "value": 16, "unit": "µg/mL"}, {"measurement": "MIC", "setting": "[4]", "value": 16, "unit": "µg/mL"}, {"measurement": "MBC", "setting": "[5]", "value": 16, "unit": "µg/mL"}, {"measurement": "MIC", "setting": "[5]", "value": 16, "unit": "µg/mL"}, {"measurement": "MBC", "setting": "[6]", "value": 16, "unit": "µg/mL"}, {"measurement": "MIC", "setting": "[6]", "value": 16, "unit": "µg/mL"}, {"measurement": "MBC", "setting": "[7]", "value": 16, "unit": "µg/mL"}, {"measurement": "MIC", "setting": "[7]", "value": 16, "unit": "µg/mL"}, {"measurement": "MBC", "setting": "[8]", "value": 32, "unit": "µg/mL"}, {"measurement": "MIC", "setting": "[8]", "value": 32, "unit": "µg/mL"}, {"measurement": "MBC", "setting": "[9]", "value": 8, "unit": "µg/mL"}, {"measurement": "MIC", "setting": "[9]", "value": 8, "unit": "µg/mL"}, {"measurement": "MBC", "setting": "[10]", "value": 16, "unit": "µg/mL"}, {"measurement": "MIC", "setting": "[10]", "value": 16, "unit": "µg/mL"}, {"measurement": "MBC", "setting": "[11]", "value": 32, "unit": "µg/mL"}, {"measurement": "MIC", "setting": "[11]", "value": 16, "unit": "µg/mL"}, {"measurement": "MBC", "setting": "[12]", "value": 16, "unit": "µg/mL"}, {"measurement": "MIC", "setting": "[12]", "value": 16, "unit": "µg/mL"}, {"measurement": "MBC", "setting": "[13]", "value": 8, "unit": "µg/mL"}, {"measurement": "MIC", "setting": "[13]", "value": 8, "unit": "µg/mL"}, {"measurement": "MBC", "setting": "[14]", "value": 32, "unit": "µg/mL"}, {"measurement": "MIC", "setting": "[14]", "value": 16, "unit": "µg/mL"}, {"measurement": "MBC", "setting": "[15]", "value": 8, "unit": "µg/mL"}, {"measurement": "MIC", "setting": "[15]", "value": 8, "unit": "µg/mL"}, {"measurement": "MBC", "setting": "[16]", "value": 64, "unit": "µg/mL"}, {"measurement": "MIC", "setting": "[16]", "value": 32, "unit": "µg/mL"}, {"measurement": "MBC", "setting": "[17]", "value": 16, "unit": "µg/mL"}, {"measurement": "MIC", "setting": "[17]", "value": 8, "unit": "µg/mL"}, {"measurement": "MBC", "setting": "[18]", "value": 8, "unit": "µg/mL"}, {"measurement": "MIC", "setting": "[18]", "value": 8, "unit": "µg/mL"}, {"measurement": "MBC", "setting": "[19]", "value": 8, "unit": "µg/mL"}, {"measurement": "MIC", "setting": "[19]", "value": 8, "unit": "µg/mL"}, {"measurement": "MBC", "setting": "[20]", "value": 8, "unit": "µg/mL"}, {"measurement": "MIC", "setting": "[20]", "value": 8, "unit": "µg/mL"}, {"measurement": "MBC", "setting": "[21]", "value": 32, "unit": "µg/mL"}, {"measurement": "MIC", "setting": "[21]", "value": 32, "unit": "µg/mL"}, {"measurement": "MBC", "setting": "[22]", "value": 16, "unit": "µg/mL"}, {"measurement": "MIC", "setting": "[22]", "value": 8, "unit": "µg/mL"}, {"measurement": "MBC", "setting": "[23]", "value": 64, "unit": "µg/mL"}, {"measurement": "MIC", "setting": "[23]", "value": 32, "unit": "µg/mL"}, {"measurement": "MBC", "setting": "[24]", "value": 16, "unit": "µg/mL"}, {"measurement": "MIC", "setting": "[24]", "value": 8, "unit": "µg/mL"}, {"measurement": "MBC", "setting": "[25]", "value": 16, "unit": "µg/mL"}, {"measurement": "MIC", "setting": "[25]", "value": 16, "unit": "µg/mL"}]}
